Source: patent publication US6737428B2, “BIS hydrochloride monohydrate salt of RSV fusion inhibitor” (Bristol-Myers Squibb Company, priority 2001, dated 2004)
Read-outs that look alike come from different tables or passages of the source.

Tests used:
[1] = tested on: respiratory syncytial virus Long strain; experiment: Antiviral activity against respiratory syncytial virus in HEp-2 cells (MTT cell protection); format: cell-based; settings: for EC50: human respiratory syncytial virus, read-out: EC50 (concentration that produces 50% cell protection)
Method: The antiviral activity of these compounds against respiratory syncytial virus was determined in HEp-2 (ATCC CCL 23) cells that were seeded in 96 well microtiter plates at 1.5×10^4 cells/100 μL/well in DMEM (Dulbecco's Modified Eagle's Medium) supplemented with penicillin, streptomycin, glutamine, and 10% fetal bovine serum. The cells were incubated overnight at 37° C., the culture medium was removed, and cells were infected (100 μL volume in medium containing 2% fetal bovine serum) with respiratory syncytial virus Long strain at 5000 plaque forming units/mL. The compounds, 100 μL at appropriate dilution, were added to the cells 1 hour post infection. After incubation for 4 days at 37° C., the plates were stained with MTT solution (3-[4,5-dimethlythiazol-2-yl]-2,5-diphenyltetrazolium bromide) and incubated for 4 hours at 37° C. The media was aspirated from the cells and 100 μL/well of acidified isopropanol (per liter: 900 mL isopropanol, 100 mL Triton X100, and 4 mL conc. HCl) was added. Plates were incubated for 15 minutes at room temperature with shaking, and an optical density (OD 540) reading at 540 nanometer (nm) was obtained. The optical density reading is proportional to the number of viable cells. The increase in the number of viable cells reflects the protective, antiviral activity of the compound. Assays comparing MTT staining in uninfected cells containing compound with uninfected cells in the absence of compound provide a measure of cellular toxicity.
The antiviral activity of compounds, designated as EC50, is presented as a concentration that produces 50% cell protection in the assay. […]

[2] = acid used as salt former; cited from earlier work

NC(=O)c1ncn([C@@H]2O[C@H](CO)[C@@H](O)[C@H]2O)n1 [Ribavirin] gave a cell protection ([1]; at 2.5 μg/mL (corresponding to 10.2 μM)) of 100% and an EC50 ([1]; 96 h, HEp-2 cells, RSV Long strain, 4 days, MTT) of 3000 nM.
In the case of O=c1n(Cc2nc3ccccc3n2CCCCO)c2cnccc2n1C1CC1 [compound II], the EC50 ([1]; HEp-2, 96 h) is reported as 60 nM.
For O=C(O)/C=C/C(=O)O [fumaric acid], the “first pKa” value [2] is listed as roughly 3.
For O=C(O)/C=C\C(=O)O [maleic acid], the “first pKa” value [2] is listed as roughly 2.
